Source: PMC11729425 (ACS Pharmacology & Translational Science, 2024)

Test system: human primary IBM cells
Experiment: Aggresome detection (proteostat) in primary myoblasts from IBM patients
Type: cell-based
Details: 4 μM for 24 h
Method: Figure 4 1-deoxy-SL species accumulate in muscle and brain tissues during aging and contribute to cellular protein aggregation. (A,B) Heat map representing the abundance of sphingolipids in (A) gastrocnemius muscle and (B) brain with and without treatment with ALT-007 in mice (ALT-007 at 1 mg/kg; DMSO at equivalent volume for 20 weeks). N = 8 per group. Data are shown as log2 fold change. Adjusted P values are indicated as follows: *adjusted P < 0.05; **adjusted P < 0.01; ***adjusted P < 0.001. (C,D) Representative images and quantification of protein aggregates upon 1-deoxy-SA (C) and P053 treatment (D) in human primary IBM cells; both were administered at 4 μM for 24 h. N = 8 per group. (E) Analysis of 1-Deoxy-Spa and 1-DeoxyCer 24:1 levels in myoblasts from healthy and IBM patients. N = 3 per group. (C–E) Quantitative data are expressed as median with IQR and compared using the Mann–Whitney U test. All tests were 2 sided. *P < 0.05, **P < 0.01, ***P < 0.001.
Primary myoblasts from IBM patients and healthy aged matched donors were provided by Hospices Civils de Lyon. Cells were grown in DMEM/F-10 supplemented with 12% FBS (Gibco) and penicillin–streptomycin (1×, Gibco). Cells were cultured on sterilized coverslips in six-well plates (Greiner BioOne, CELLSTAR, 657160). […]

Compound: CCCCCCCCCCCCCCC[C@@H](O)[C@H](C)N [1-deoxy-SA, 1-deoxy-sphinganine]
- cellular protein aggregates (proteostat signal): significantly exacerbated the accumulation of cellular protein aggregates
